Test results reported in patent US5641666A, “Soraphen A resistant fungi and acetyl-CoA carboxylase” (priority 1993, dated 1997).
Values after ≈ are worked out from the molar mass of the structure shown.

Assays:
YS 18 yeast cells = assay: Growth curves of yeast in liquid YPD medium with soraphen A (OD600, viable cell titer); assay type: cell-based, Saccharomyces cerevisiae
Method: Saccharomyces cerevisiae strain YS 18 (MATeα; his 3-11, 3-15; leu 2-3, 2-112; ura 3-Δ5; can^R; cir^+) is chosen as the wild-type. YHV 18 (MATa; his 3-11, 3-15; leu 2-3, 2-112; ura 3-Δ5; canst; cir^+) is isolated after a mating type switch of YS 18 and is therefore isogenic.
100 ml YPD medium in a 500 ml flask is inoculated with about 10^7 YS 18 yeast cells/ml and incubated for growth at 180 rpm at 30° C. Before the addition of soraphen A at time point 0, the cells have already been incubated for 1 hour. The control is treated identically, but receives no soraphen A. Total cell numers are monitored by measuring the OD600. The number of viable cells called the […] is determined by plating on YPD plates. The number of soraphen A resistant cells is counted by plating on YPD-SOR plates containing the same soraphen A concentration as in the flask.

[1] = system: diploids from the backcrosses of soraphen A resistant yeast strains; assay: Determination of the minimal inhibitory concentration (MIC) on YPD-SOR plates, diploids from backcrosses of soraphen A resistant strains; assay type: cell-based, Saccharomyces cerevisiae; details: diploids from backcrosses vs wild-type
Method: In a first step all of the mutants are backcrossed with the wild-type strain of the opposite mating type, the diploid strains are sporulated and the asci are subjected to tetrad analysis. From each cross at least six complete tetra are examined and all of them are found to segregate 2:2 for soraphen A resistance and soraphen A sensitivity. This indicates mutations at a single genetic locus.
In another step the MIC of the dipbids from the backcrosses is determined.
Yeast colonies are grown for 2 days at 30° C. on a YPD plate and replica pated on a set of YPD-SOR plates. The following soraphen A concentrations are used: 0 μg/ml, 0,35 μg/ml, 0,76 μg/ml, 1,5 μg/ml, 3,13 μg/ml 6,7 μg/ml, 15,45 μg/ml and 54,5 μg/ml. After growth for 24 hours at 30° C. the plates are inspected for growth.

[2] = system: strains YS 18 and YHV 18 (culture A); assay: Plating of culture A on YPD-SOR-10; assay type: cell-based, Saccharomyces cerevisiae; details: 10 μg/ml soraphen A, 30° C., 3 days
Method: YPD-SOR-10 is YPD medium supplemented with 10 μg/ml soraphen A.
Each of the isogenic strains YS 18 and YHV 18 is grown in 5 ml of YPD to late exponential phase. The culture is diluted 10^4 fold to give culture A the viable cell number of which is determined. Twenty tubes each containing 5 ml of YPD are inoculated with 10 μl of culture A, which corresponds to about 10 cells, and are incubated at 28° C. until a density of 10^7 cells/ml is attained. 1 ml aliquots of each of the tubes are plated on YPD-SOR-10 and the plates are incubated at 30° C. for 3 days. To ensure isolation of independent mutants from each of the 20 YPD-SOR-10 plates only colonies with different shape or sizes are selected. Mutant colonies are restreaked twice on YPD before storing them as glycerol stock cultures at -70° C.
To exclude the presence of soraphen A resistant routants at the beginning of the cultivation of culture A, the remainder of culture A is plated on YPD-SOR-10 and incubated at 30° C. for 3 days.

fungi = details: cited from earlier work
bacteria = details: cited from earlier work
acetyl-CoA carboxylase = details: cited from earlier work

COC1/C=C/C(C)C2OC(O)(C(C)C(=O)OC(c3ccccc3)CCCCC1OC)C(OC)C(O)C2C (centres unmarked) [soraphen A]
MIC (YS 18 yeast cells; Saccharomyces cerevisiae, YS 18 wild-type, YPD, 30° C., 180 rpm, read-out: minimal inhibitory concentration (MIC) as determined from the growth curves): 0.1 µg/mL (≈ 0.192 µM)
duration of complete inhibition of growth (YS 18 yeast cells; YS 18, YPD, 30° C., thereafter growth recovers due to soraphen A resistant mutants): approximately 40 hours
cell killing (viable cell counts) (YS 18 yeast cells; YS 18, during the first 20 hours): extensive cell killing occurs
sensitivity of the diploids compared with the wild-type strain [1]: None of the diploids is as sensitive to soraphen A as the wild-type strain
growth of colonies [2]: No growth of colonies is observed
activity as a fungicide (fungi): strong activity as a fungicide
effect on bacteria (bacteria): without effect on bacteria
interference with acetyl-CoA carboxylase (acetyl-CoA carboxylase): shown to interfere with acetyl-CoA carboxylase
